Measured values taken from publication PMC8708252, “Silymarin Dehydroflavonolignans Chelate Zinc and Partially Inhibit Alcohol Dehydrogenase” (Nutrients, 2021).
Each block holds one compound with its values, some of them ahead of it.

Assays:
Assay type in all cases: biochemical
[1] = biological target: T1, bovine glutamate dehydrogenase type I (GDH) (Bos taurus, UniProt P00366); test: NADH absorbance ([…] nm) assay with and without […] zinc
T1 construct: gene GLUD1

[2] = biological target: T2, equine alcohol dehydrogenase (ADH) (Equus caballus, UniProt P00327); test: NADH absorbance ([…] nm) ethanol oxidation assay with recombinant enzyme
T2 construct: recombinant equine ADH

[3] = biological target: T2, equine alcohol dehydrogenase (ADH); test: as above; remark: listed apart in the source
[4] = biological target: T3, yeast alcohol dehydrogenase (ADH) (Saccharomyces cerevisiae, UniProt P00330); test: NADH absorbance ([…] nm) ethanol oxidation assay with isolated enzyme
T3 construct: gene ADH1
T3 sequence (P00330 2-348): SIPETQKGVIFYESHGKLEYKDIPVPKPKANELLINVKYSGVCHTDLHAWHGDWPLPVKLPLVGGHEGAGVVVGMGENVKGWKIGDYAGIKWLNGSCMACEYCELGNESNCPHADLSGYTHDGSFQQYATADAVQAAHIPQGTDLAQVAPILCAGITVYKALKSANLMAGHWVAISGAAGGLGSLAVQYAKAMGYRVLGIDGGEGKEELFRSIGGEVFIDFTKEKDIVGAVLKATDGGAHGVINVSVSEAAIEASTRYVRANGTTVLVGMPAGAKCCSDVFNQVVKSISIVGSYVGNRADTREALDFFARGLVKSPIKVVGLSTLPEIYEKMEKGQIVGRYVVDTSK

[5] = biological target: T2, equine alcohol dehydrogenase (ADH); test: NADH absorbance ([…] nm) ethanol oxidation assay with recombinant enzyme; remark: listed apart in the source

T2 sequence (P00327 2-375): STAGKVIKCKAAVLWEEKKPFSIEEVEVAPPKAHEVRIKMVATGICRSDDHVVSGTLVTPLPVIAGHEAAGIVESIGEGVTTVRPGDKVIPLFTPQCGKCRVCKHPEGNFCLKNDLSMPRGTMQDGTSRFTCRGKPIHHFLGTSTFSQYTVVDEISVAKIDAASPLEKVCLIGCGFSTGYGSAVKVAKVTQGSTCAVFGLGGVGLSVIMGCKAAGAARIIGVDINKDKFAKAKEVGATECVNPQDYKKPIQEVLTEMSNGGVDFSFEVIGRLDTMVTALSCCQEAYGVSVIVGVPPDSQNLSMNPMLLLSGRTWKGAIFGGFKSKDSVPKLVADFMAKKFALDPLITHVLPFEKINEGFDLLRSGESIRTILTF
T1 sequence (P00366 58-558): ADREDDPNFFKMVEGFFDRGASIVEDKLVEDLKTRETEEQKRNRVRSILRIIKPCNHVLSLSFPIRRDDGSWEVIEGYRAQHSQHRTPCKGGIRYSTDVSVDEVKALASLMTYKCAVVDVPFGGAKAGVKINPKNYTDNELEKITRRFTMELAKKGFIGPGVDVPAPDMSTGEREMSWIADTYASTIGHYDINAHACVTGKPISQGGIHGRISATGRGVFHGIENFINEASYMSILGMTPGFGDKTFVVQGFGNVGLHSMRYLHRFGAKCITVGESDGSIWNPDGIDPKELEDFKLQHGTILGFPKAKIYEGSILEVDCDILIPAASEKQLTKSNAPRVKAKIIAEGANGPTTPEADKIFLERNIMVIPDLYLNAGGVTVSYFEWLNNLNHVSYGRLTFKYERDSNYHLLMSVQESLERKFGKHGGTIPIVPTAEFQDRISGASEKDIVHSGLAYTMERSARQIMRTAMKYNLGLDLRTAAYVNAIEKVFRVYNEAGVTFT

Structure (SMILES): COc1cc(C2Oc3cc(-c4oc5cc(O)cc(O)c5c(=O)c4O)ccc3OC2CO)ccc1O (racemic) [DHS, 2,3-dehydrosilybin]
NADH absorbance (340 nm) assay with and without 150 μM zinc [1]: they were particularly potent inhibitors of the enzyme itself

Structure (SMILES): COc1cc([C@H]2Oc3cc(-c4oc5cc(O)cc(O)c5c(=O)c4O)ccc3O[C@@H]2CO)ccc1O [DHS-A, 2,3-dehydrosilybin A]
inhibition at 10 µM [2]: ~20%

Structure (SMILES): COc1cc([C@@H]2Oc3cc(-c4oc5cc(O)cc(O)c5c(=O)c4O)ccc3O[C@H]2CO)ccc1O [DHS-B, 2,3-dehydrosilybin B]
NADH absorbance (340 nm) ethanol oxidation assay with recombinant enzyme [3]: Inhibition of equine ADH by active flavonolignans

IC50 [4]: 14 mM | IC50 [5]: 0.00525 mM
Structure (SMILES): Cc1cn[nH]c1 [fomepizole]
